# Data reported in ChEMBL document CHEMBL3507680, “University of Dundee, Gates Library screen for HepG2 cell viability”.
# Assay: Human HepG2 cell viability assay in 384 well format
# Type: toxicity, cell-based
# Set-up: dose 125 nL, time 70.5 hour; concentration not given beside the values
# Details: HepG2 cells, read-out: Inhibition
row,Compound,cytotoxicity at 70.5 h [%]
1,Cc1nn(C)c(N2CCOCC2)c1CNC(c1ccccc1)C1CC1 (stereo unspecified),11.3
2,O=C(Cc1cccc(F)c1F)N1CCOC(c2cccc(O)c2)C1 (stereo unspecified),-2.65
3,CC(C)c1noc(CN2CCC(C3CCCCCN3S(C)(=O)=O)CC2)n1 (stereo unspecified),11
4,Fc1cnc(N2CCOCC3(CCCN(c4nncs4)C3)C2)nc1 (stereo unspecified),-19.9
5,CCO[C@@H]1CC[C@H]2[C@H]1OCCN2S(=O)(=O)c1cn(C)cn1,-1.5
6,Cc1nc(C2CCN(S(=O)(=O)c3ccc(Cl)cc3)CC2)n[nH]1,1.07
7,CCc1c(C)nn(CC(=O)NC(C(=O)O)c2c(C)n[nH]c2C)c1C (stereo unspecified),-7.94
8,CC(C)OCCCNC(=O)C1CC(=O)N(c2n[nH]c3cccc(F)c23)C1 (stereo unspecified),-23.7
9,c1ccc(-c2nnc(N3CCCC4(CCOC4)C3)s2)cc1 (stereo unspecified),1.41
10,COc1cc(Cl)ccc1C(=O)NCc1n[nH]c(C)n1,1.46
11,CC(C)Oc1ccc(CN)c(C(F)(F)F)c1,-7.67
12,COc1ccccc1N1CCC(CNC(=O)N(C)Cc2ccco2)C1 (stereo unspecified),-3.56
13,CCN(Cc1ccncc1)CC1(O)CCN(C(=O)c2cnn(C)c2)C1 (stereo unspecified),-4.91
14,CC(C)c1nc(CN2CCN(Cc3ccccn3)CC2)cs1,-3.18
15,CC(C)C(=O)N1CCN(CC(O)c2cc(Cl)ccc2Cl)CC1 (stereo unspecified),-7.34
16,CN(Cc1ccc2c(c1)OCO2)C(=O)c1ccn(C)c(=O)c1,-10.8
17,CCc1nsc(N2CCN(CC(=O)Nc3c(C)n[nH]c3C)CC2)n1,2.39
18,Cc1cc(=O)n2c3c(cc(S(=O)(=O)NC4CC4)cc13)CCC2,31.9
19,O=C(O)c1c[nH]c2cc(NS(=O)(=O)c3cccc(Cl)c3F)ccc12,-10.1
20,NC(=O)C1CCCN(c2ccc(CNC(=O)c3cc[nH]n3)cc2)C1 (stereo unspecified),5.04
21,O=C1[C@@H]2CCN(Cc3ccoc3)C[C@@H]2OCCN1Cc1cccnc1,-20.5
22,CC(C)S(=O)(=O)NCC1CCCN(C(=O)c2ccc3c(c2)OCCO3)C1 (stereo unspecified),-1.13
23,N#Cc1cccnc1OC1CCN(C(=O)c2cc(C3CC3)on2)CC1,-6.54

row,Compound,cytotoxicity at 70.5 h [%]
1,CC(C)Oc1cc(N2CC[C@H](CO)[C@@H](O)C2)nc(N)n1,-8.74
2,Cc1cnn(CC2CCCN2c2ncnc3ccccc23)c1 (stereo unspecified),9.14
3,CCCOC(=O)c1ccc(-c2ccc(/C=C3\C(=O)NC(=N)N3C)o2)cc1,18.1
4,Cc1ccc(N2CCCC3(CCN(C(=O)C4CC4)C3)C2)nn1 (stereo unspecified),-3.58
5,C[C@@H]1CN(C(=O)c2ccc(Br)cc2F)CC(C(N)=O)O1 (stereo partly specified),-4.88
6,O=C(N1CCCO1)[C@]12COC[C@H]1CN(Cc1nccs1)C2,-7.21
7,O=C(C1CCN(Cc2nc(-c3ccco3)no2)CC1)N1CCCC1,-4.18
8,Cn1nnnc1SC1CCCN(c2cccc(F)c2)C1=O (stereo unspecified),19.4
9,Cc1cnc(CNC(=O)c2cc3c(s2)CCN3S(C)(=O)=O)cn1,-0.66
10,COc1cccc(CNC(=O)Cn2ccc3c(C)nn(C)c3c2=O)c1,-5.8
11,Cc1ccc(N2CCCC(NCc3nc(C)c(C)o3)C2)nn1 (stereo unspecified),-14.3
12,CCn1cc(S(=O)(=O)N2CCN(C(=O)c3cc(Br)cs3)CC2)c(C)n1,21.7
13,Cc1ccc(C(=O)N2CCN(C)C3(CCC(=O)N(C)CC3)C2)c(F)c1 (stereo unspecified),-9.61
14,Cc1ccccc1CNc1ccc(S(N)(=O)=O)c(C(F)(F)F)c1,4.82
15,CC(C)N1CCN(C(=O)C(C)n2cncn2)CC1 (stereo unspecified),5.67
16,Fc1ccc(C2CN(c3ncnc4[nH]ncc34)CCO2)cc1 (stereo unspecified),12.2
17,Cc1cnn(Cc2cc(F)ccc2F)c1NC(=O)CNC(=O)C1CC1,1.15
18,CC(=O)N1CCN(c2ccnc3c(F)cc(Br)cc23)CC1,-1.55
19,Cc1ncc(S(C)(=O)=O)c(C2CCCNC2)n1 (stereo unspecified),2.69
20,CC(C)CC(=O)N1CC[C@@H]2[C@H](CC1)N(S(C)(=O)=O)CCS2(=O)=O,-4.28
21,CCc1n[nH]c(C(=O)NCCn2ccc(C)n2)c1C,17.6
22,Cc1nnc2ccc(NCC3(N4CCCCC4)CCOCC3)nn12,-4.4
23,COc1ccccc1C(C)NC(=O)N1CCN(Cc2ccc(Br)s2)CC1 (stereo unspecified),5.11

row,Compound,cytotoxicity at 70.5 h [%]
1,CN1CCc2nc(C3CCCN(S(=O)(=O)c4ccccc4)C3)ncc2C1 (stereo unspecified),-1.43
2,CC(C)NC(=O)N1CCC(c2nnc3ccc(C(=O)N(C)C)cn23)C1 (stereo unspecified),-1.02
3,Cc1cc(C(=O)N(C)CCN(C)C(=O)OC(C)(C)C)oc1C,-2.24
4,c1coc(-c2noc(CN3CCCC3Cn3cncn3)n2)c1 (stereo unspecified),-8.45
5,COc1cccc(CN(C(=O)NC2CC2)C2CCC(O)CC2)c1 (stereo unspecified),-6.74
6,Fc1cccc(N2CCCC3(C2)CN(c2ncccn2)CCO3)c1 (stereo unspecified),-0.813
7,CC(C)Cn1c(=O)nc2n1C(=O)N(c1ccc(F)cc1)C2,-25.8
8,Cc1ncc(C(=O)N2CCCCC2c2nc3cc(F)ccc3[nH]2)c(O)n1 (stereo unspecified),-20
9,Cc1ccc(CNCCC(O)(c2nccn2C)C(F)(F)F)o1 (stereo unspecified),-6.24
10,Cn1cc(CN2CC[C@H]3OCC[C@@H](C(=O)N4CCCCO4)[C@@H]3C2)cn1,-15.8
11,OCCNc1cc(N2CCN(Cc3ccccc3)C(CCO)C2)ncn1 (stereo unspecified),-7.07
12,CCc1nc2n(n1)CC(NCc1nc(C)ccc1O)CC2 (stereo unspecified),-8.85
13,CC(C)=CCN1CC2(CCN(C(=O)CCn3ccnc3C)CC2)CC1=O,0.368
14,CN(C)S(=O)(=O)N1CCCC1CC(=O)c1cccs1 (stereo unspecified),-9.51
15,c1ccc(NCc2cn3c(n2)CN(Cc2cccs2)CC3)nc1,8.31
16,COC(=O)c1cnc2c(c(C)nn2C)c1OC,-3.27
17,CC(C)(C)c1ccn(C2(C(=O)O)CCN(c3nccc(N)n3)CC2)n1,-3.64
18,Cc1cnn(CC2CCCN2Cc2coc(-c3ccc(F)cc3)n2)c1 (stereo unspecified),-115
19,O=C(CCn1cncn1)N1CCC2(CC1)[C@H](O)C[C@@H]2OCCO,0.165
20,Cc1cc(=O)[nH]c(SC(C)C(=O)N2CCC(NS(C)(=O)=O)CC2)n1 (stereo unspecified),2.17
21,CC(=O)c1cccc(OC(C)C(=O)Nc2cnn(CCN(C)C)c2)c1 (stereo unspecified),-12.3
22,Cc1ccccc1C(=O)N1CCOCC1CN(C)C (stereo unspecified),-9.03
23,Cc1nc(C)n(C2CCCN(C(=O)c3cc4ccccc4n3C)C2)n1 (stereo unspecified),-1.56

row,Compound,cytotoxicity at 70.5 h [%]
1,COCCN1C[C@H]2CCN(c3ncccn3)CC[C@H]2S1(=O)=O,-3.17
2,O=c1c2cccc(F)c2ncn1CCN1CCOCC1,-3.65
3,CCc1nc(C(=O)N2CCOCC2)nn1-c1ccccc1Cl,-3.34
4,Cc1ncc(-c2ccccn2)c(CCNC(=O)CCC2CCCO2)n1 (stereo unspecified),3.67
5,COCC1c2c(cnn2C)CCN1C(=O)c1ccc2c(c1)OCO2 (stereo unspecified),1.82
6,c1ccc2oc(N3CCn4c(nnc4C4CC4)C3)nc2c1,-2.1
7,CCC(=O)N1CCN(C(=O)c2cn3ccsc3n2)[C@H]2CS(=O)(=O)C[C@H]21,-13.8
8,CN1CCCCCC1C(=O)N1CCCN(c2ccccc2)CC1 (stereo unspecified),4.68
9,Cc1ccsc1CN1CCC2(CC1)CC(OCc1cccnc1)CO2 (stereo unspecified),-0.0736
10,Cc1cccc2c1cnn2CCCNC(=O)C1CC1,-4.27
11,COc1ccc(-c2nc(CN3CCc4cnc(C)nc4C3)no2)cc1,-6.23
12,O=C(Nc1cccc(CNCc2cccnc2)c1)C1CCCC1,-4.79
13,COc1ncccc1CN1C[C@@H]2CN(c3ncccn3)C[C@@H]2C1,18.1
14,Cc1nccn1C1CCCN(C(=O)c2ccc(N3CCCC3)nn2)C1 (stereo unspecified),-4.33
15,CCn1nc(C)c(CN(CCOC)C(=O)c2ccc(=O)[nH]n2)c1C,-4.87
16,CCN(C1CCN(Cc2ncc(C(C)(C)C)o2)CC1)S(C)(=O)=O,-7.94
17,CCC(=O)NCCCn1c(-c2cccnc2C)cc2cccnc21,-1.81
18,Cn1cc(CN2CCCC3(CCN(Cc4cccnc4)C3=O)C2)cn1 (stereo unspecified),-13.4
19,CCc1nc(CN2CCCN(C(=O)CC(F)(F)F)CC2)cs1,1.28
20,Cc1cc(NC(=O)CN2CCC(N(C)Cc3ncc(C)o3)C2)n(C)n1 (stereo unspecified),16.2
21,Cn1c(CN2CCCC(Cn3cc(CCO)nn3)C2)cc2ccccc21 (stereo unspecified),-0.291
22,COCCNc1ccc(CC2CCCN(c3ncccn3)C2)nn1 (stereo unspecified),-1.21
23,COc1cccc(S(=O)(=O)CCN2CCCC2c2ccc[nH]2)c1 (stereo unspecified),-16.8

row,Compound,cytotoxicity at 70.5 h [%]
1,COc1ccc(Cl)cc1CC(=O)N1CCN(CC(C)O)CC1 (stereo unspecified),-5.64
2,COc1ncccc1CNC(=O)NC(C)Cn1cccn1 (stereo unspecified),-14.1
3,COc1ccc(OC)c(C2CCN(C3CCN(C(C)=O)CC3)C2)c1 (stereo unspecified),2.82
4,CCS(=O)(=O)N1CCc2c(cccc2NC(=O)NCCOC)C1,-1.31
5,Cc1nc[nH]c1C(=O)NCc1cccnc1N(C)C1CCCCC1,4.83
6,N#Cc1cccc(N2CCOCC3(CCCN(C(=O)NC4CC4)C3)C2)c1 (stereo unspecified),-6.43
7,CN(CC1CCN(CCO)CC1)CC(O)c1ccc(F)cc1F (stereo unspecified),-3.94
8,COCCC(=O)N1CCN(CC2CC2)c2nc(C)ccc2C1,9.16
9,Cc1cn2c(n1)CCC(NC(=O)c1ccc(OCC3CC3)nc1)C2 (stereo unspecified),-3.71
10,O=C(CCn1nc(C(F)(F)F)c(Br)c1C1CC1)NN1CCOCC1,-4.82
11,Cc1nn(C)c(C)c1S(=O)(=O)NCC1CCN(c2ccccn2)CC1,0.358
12,O=C(Nc1cccnc1)C1=Cc2ccccc2OC1,7.74
13,CN1CCN(C2CCN(CCOc3ccccc3)CC2)C1=O,-14.7
14,O=C(C1CC1)N1CC2(CCN(CC3CC3)CC2)c2cc(F)ccc21,25.9
15,O=C(NCC1CC1)C1=NOC2(CCN(S(=O)(=O)c3cccs3)C2)C1 (stereo unspecified),-10
16,c1cc(-c2n[nH]cc2-c2ccnc(N3CCCCCC3)n2)ccn1,0.607
17,Cc1ccc(Nc2nccc(C3CCCN(CC(=O)N(C)C)C3)n2)nc1 (stereo unspecified),-16.1
18,Cc1cnn(CC2CCCCN2CC(=O)Nc2c(C)n[nH]c2C)c1 (stereo unspecified),-5.21
19,CC(=O)NCc1ccc(C(=O)N2CCCc3c(F)ccc(C)c32)cc1,-8.8
